Literature values, collected in patent publication EP1368044B1, “IMMUNOMODULATOR FOR THE MANAGEMENT OF HUMAN IMMUNODEFICIENCY VIRUS (HIV) DISEASE/INFECTION” (Bakulesh, Mafatlal Khamar, priority 2002, dated 2002).
Ends that are not written are not given here.

System: HIV
Conditions: along with interleukin-2

Thymosin α1: a 28-aminoacid peptide (SDAAVDTSSEITTKDLKEKKEVVEEAEN; ends and bridges not checked; UniProt P06454 2-29, looked up)
efficacy to improve CD4: no significant effect
